Test results as given in US10221255B2, “Composition for the immediate stopping of a free-radical polymerization” (BASF SE, priority 2015, dated 2019).

Assays:
[1] = Heating test in acrylic acid: inhibition period at 120° C. under air; details: PTZ 20 ppm in acrylic acid, average of three
Procedure: In this example, heating tests in acrylic acid (AA) were carried out. In this test, a sample of acrylic acid is maintained at 120° C. under an air atmosphere and the time until occurrence of turbidity in the solution is determined. The time is considered to be the inhibition period (IP) of the acrylic acid sample.
A part 1 was taken from the pure acrylic acid distillate RD and a stock solution 1 comprising 1000 ppm by weight of phenothiazine (PTZ) was produced with stirring.
40 parts by weight of stock solution 1 were mixed with 960 parts by weight of the pure acrylic acid distillate RD so as to give the stock solution 3. Part of this stock solution 3 was divided into identical samples having volumes of 1 ml.
Samples taken from the stock solutions 2 were combined with the various 1 ml samples obtained from the stock solutions 3 in such a way that the desired compositions of acrylic acid, phenothiazine (PTZ), ionic liquids IL, solvents LM or mixtures IL/LM of ionic liquids IL with solvents LM were obtained by doping. The doped samples produced in this way were provided for further examination on the same day. For repeat measurements, fresh doped samples were produced in order to minimize the influence of the acrylic acid oligomers obtained by Michael oligomerization.
To examine the polymerization tendency of the respective doped sample, three HPLC vials (transparent vessels having a fill volume of 1.5 ml) were in each case charged with 0.5 ml of the respective sample under air and subsequently tightly closed by means of a crimped cap. Immediately after production, in each case up to 92 vials charged as described were hung in a holder made for this purpose and kept at a temperature of 120° C. in a convection drying oven while the holder rotated at six revolutions per minute in order to ensure complete mixing in the vials (the liquid content of the respective vial came into contact with the crimped cap six times per minute). The time T to complete polymerization of the respective sample in the associated vial was then measured. For this purpose, the samples in the vials in the drying oven were monitored by means of a digital video camera and the video film was subsequently evaluated visually.
Three associated values of T were determined in this way for each doped sample and these were arithmetically averaged.
When mixtures of ionic liquid and solvent were used as additive, the weight ratio of ionic liquid to solvent or to the solvent mixture (IL/LM) was 20/80.

[2] = Hansen solubility parameters and solubility distance Ra of solvents; assay type: physicochemical; parameters: key: solubility distance Ra in MPa^1/2; details: solubility distance calculated from formula 1
Description: The value will hereinafter also be referred to as solubility distance Ra. The definition and calculation of the solubility parameters in the three-dimensional Hansen solubility space are described in: C. M. Hansen: “The three dimensional solubility parameters” J. Paint Technol. […] In this Hansen space, δD denotes the LONDON dispersion forces, δP denotes the Debye interaction forces between permanent dipoles and also the Keesom interaction forces between induced and permanent dipoles and δH denotes the specific interaction forces (hydrogen bonds, acid/base, donor/acceptor, etc.). The unit of the parts of the parameters is in each case [MPa^1/2].
The Hansen solubility parameters for many solvents are tabulated in standard works such as Hansen Solubility Parameters: A User's Handbook, C. […] It is also possible to use known modeling software, for example HSPIP 3.1.14 (3rd Edition), developed and marketed by C. M. Hansen, in order to calculate the Hansen solubility parameters on the basis of the chemical structure of the solvent.

[3] = relative static permittivity, liquid pure substance; cited from earlier work
[4] = Hansen solubility parameter, room temperature, about 23° C., cited from earlier work; for δD: LONDON dispersion forces; for δP: dipole interaction forces; for δH: specific interaction forces (hydrogen bonds etc.)
[5] = Solubility of phenothiazine in ionic liquid/solvent mixtures relative to pure solvent; details: 20% by weight ionic liquid, 80% by weight solvent; room temperature; FIGS. 1 to 4
Procedure: In the same way, the solubility of phenothiazine in the pure solvent was determined.

[6] = Phase diagram of the system phenothiazine/proglyme/EMIM ethylsulfate; assay type: physicochemical; details: room temperature, FIG. 6
Procedure: (§1) The phase diagram (triangular diagram) of the system phenothiazine/proglyme/EMIM ethylsulfate was determined at room temperature. In the triangular diagram, the corners correspond to the pure materials. The sides of the triangle correspond to two-component mixtures. The proportions of phenothiazine/proglyme/EMIM ethylsulfate at any point P are given by the intersections of the parallels to the sides through P with the other sides. The phase behavior (single-phase, two phases liquid/liquid, two phases solid/liquid, three-phase) at selected points is indicated by symbols.

[7] = Phase diagram of the system phenothiazine/proglyme/EMIM acetate; assay type: physicochemical; details: room temperature, FIG. 5
Procedure: as §1, with “phenothiazine/proglyme/EMIM acetate” for “phenothiazine/proglyme/EMIM ethylsulfate”, “the side” for “the sides”

Compound	Inhibiting period ([1]; additive 1000 ppm)	Ra [2]	εr at 20° C. [3]	δD [4]	δP [4]	δH [4]	other results
C1COCCN1 [Morpholine]	410 min	8.1	7.8	18.0 MPa^1/2	4.9 MPa^1/2	11.0 MPa^1/2	–
CN1CCN(C)C1=O [Dimethylethyleneurea]	313 min	–	–	–	–	–	–
COCC(C)OCC(C)OC (centres unmarked) [Dipropylene glycol dimethyl ether]	339 min	7.1	10.4	15.5 MPa^1/2	4.6 MPa^1/2	6.1 MPa^1/2	–
CCCCOC(=O)CCCCC(=O)OCCCC [Dibutyl adipate (Cetiol B), Dibutyl adipate]	347 min	6.8	3.0	16.4 MPa^1/2	4.3 MPa^1/2	5.9 MPa^1/2	–
CN1CCCC1=O [N-Methylpyrrolidone]	343 min	8.2	32.8	16.8 MPa^1/2	2.8 MPa^1/2	6.7 MPa^1/2	–
CCCCCCCCO [Agnique FOH 898, n-octanol]	332 min	–	–	–	–	–	–
OCCO [Ethylene glycol]	365 min	–	–	–	–	–	relative solubility of phenothiazine in a mixture of ionic liquid and solvent, based on the solubility in the pure solvent [5]: only a small solubility-increasing effect or solubility-reducing effect
CC(=O)O [Acetic acid]	347 min	–	–	–	–	–	–
CCCCC(CC)COC(=O)C(C)O (centres unmarked) [Agnique AE 3 2 EH, 2-ethylhexyl lactate]	279 min	–	–	–	–	–	–
CN(C)CCCN [3-(Dimethylamino)-1-propylamine, 3-(dimethylamino)-1-propylamine]	407 min	–	–	–	–	–	–
COC(=O)c1ccccc1 [Methyl benzoate]	350 min	4.9	6.7	18.9 MPa^1/2	8.2 MPa^1/2	4.7 MPa^1/2	–
COC(=O)c1ccccc1C(=O)OC [Dimethyl phthalate]	348 min	–	–	–	–	–	–
CC#N [Acetonitrile]	335 min	7.8	36.8	15.3 MPa^1/2	18.0 MPa^1/2	6.1 MPa^1/2	–
CCC(=O)O [Propionic acid]	337 min	–	–	–	–	–	–
N#Cc1ccccc1 [Benzonitrile]	334 min	4.6	25.7	18.8 MPa^1/2	12.0 MPa^1/2	3.3 MPa^1/2	–
N-ethyl-N′-methylimidazolium ethylsulfate [EMIM ethylsulfate]	–	–	–	–	–	–	Inhibiting period ([1]; additive 29 ppm): 386 min
O=S1(=O)CCCC1 [Sulfolane]	330 min	–	42.7	–	–	–	–

Compound	Inhibiting period ([1]; additive 1000 ppm)	Ra [2]	εr at 20° C. [3]	δD [4]	δP [4]	δH [4]	other results
CC(O)C(=O)N(C)C (centres unmarked) [Agnique AMD 3 L, N,N-dimethyllactamide]	405 min	–	–	–	–	–	–
tetrabutylammonium [2-(2-methoxyethoxy)ethoxy]acetate [TBA ether carboxylate]	–	–	–	–	–	–	Inhibiting period ([1]; additive 22 ppm): 378 min
O [DI water, deionized water]	327 min	–	–	–	–	–	–
CCCCCCCCCC(=O)N(C)C [C10-fatty acid dimethylamide]	335 min	–	13.8	16.6 MPa^1/2	6.7 MPa^1/2	5.7 MPa^1/2	–
N-ethyl-N′-methylimidazolium isononanoate [EMIM isononanoate]	379 min	–	–	–	–	–	–
C[S+](C)[O-] [DMSO]	317 min	7.4	47.3	18.4 MPa^1/2	16.4 MPa^1/2	10.2 MPa^1/2	–
O=C1CCCCC1 [Cyclohexanone]	75 min	3.2	16.1	17.8 MPa^1/2	8.4 MPa^1/2	5.1 MPa^1/2	–
COC(=O)CCC(=O)OC [Dimethyl succinate]	348 min	4.7	7.3	16.1 MPa^1/2	7.7 MPa^1/2	8.8 MPa^1/2	–
O=C1CCCO1 [γ-Butyrolactone]	361 min	6.1	41.4	18.0 MPa^1/2	16.6 MPa^1/2	7.4 MPa^1/2	–
NCCN [Ethylenediamine]	341 min	–	–	–	–	–	–
OCc1ccccc1 [Benzyl alcohol]	355 min	–	–	–	–	–	–
c1ccc2c(c1)Nc1ccccc1S2 [phenothiazine]	–	–	–	–	–	–	phase behavior (compatibility of ionic liquid and solvent) [6]: an incompatibility between the ionic liquid and the solvent (formation of two liquid phases) is eliminated by the addition of phenothiazine above a particular concentration; solubility of phenothiazine in the solvent on addition of ionic liquid [6]: even small additions of the ionic liquid increase the solubility of phenothiazine in the solvent, with a linear increase or a slight synergistic effect up to solubility in the pure ionic liquid; phase behavior (compatibility of ionic liquid and solvent) [7]: an incompatibility between the ionic liquid and the solvent (formation of two liquid phases) is eliminated by the addition of phenothiazine above a particular concentration; solubility of phenothiazine in the solvent on addition of ionic liquid [7]: even small additions of the ionic liquid increase the solubility of phenothiazine in the solvent, with a linear increase up to the solubility in the pure ionic liquid
C1CCC2CCCCC2C1 (centres unmarked) [Decahydronaphthalene]	347 min	–	–	–	–	–	–
CCCCC(C)=O [Methyl butyl ketone]	309 min	6.3	14.5	15.3 MPa^1/2	6.1 MPa^1/2	4.1 MPa^1/2	–
Cn1ccnc1 [N-Methylimidazole]	366 min	8.8	32.0	19.7 MPa^1/2	15.6 MPa^1/2	11.2 MPa^1/2	–
COc1ccc(C(OC)OC)cc1 [Anisacetal, p-(dimethoxymethyl)anisole]	320 min	–	–	–	–	–	–
CCCCC(CC)COC(=O)CCCCC(=O)OCC(CC)CCCC (centres unmarked) [Di(2-ethylhexyl) adipate]	350 min	6.8	2.1	16.2 MPa^1/2	4.6 MPa^1/2	7.7 MPa^1/2	–
